Results reported in PMC3468358, “Clinical, virological and biochemical evidence supporting the association of HIV-1 reverse transcriptase polymorphism R284K and thymidine analogue resistance mutations M41L, L210W and T215Y in patients failing tenofovir/emtricitabine therapy” (Retrovirology, 2012).
Like-named read-outs stand apart in the source and are kept apart here.

How the values were obtained:
WT HIV-1 RT (BH10) [1] = biological target: T1, WT HIV-1 RT (BH10) (Human immunodeficiency virus type 1 group M subtype B, UniProt P03366); experiment: Inhibition constants under steady-state nucleotide incorporation conditions; type: biochemical
T1 construct: His6 (C); made in house; host or cells: E. coli XL1 Blue
Method: (§1) RTs were expressed in E. coli XL1 Blue and purified as p66/p51 heterodimers by ionic exchange, followed by immobilized metal affinity chromatography on Ni^2+-nitriloacetic acid-agarose. The p66 subunit was obtained with a His6 tag at its C-terminal end to facilitate its purification by metal affinity chromatography. Purity of the enzymes was assessed by SDS-polyacrylamide gel electrophoresis and RT concentrations were determined by active site titration as described.
(§2) Nucleotide incorporation reactions under steady-state conditions were carried out as previously described. However, in the preincubation buffer, active RT and template-primers D38/25PGA or D38T/25PGA were present at concentrations of 7–20 nM and 60 nM, respectively. Elongation rates were determined with dTTP concentrations ranging from 0.05 to 20 μM or with dATP concentrations ranging from 12 nM to 10 μM, using reaction volumes of 20 μl. Catalytic constants kcat and Km were determined after fitting the elongation data to the Michaelis–Menten equation as described. Inhibition constants (Ki) for AZTTP and tenofovir-DP were determined under the conditions used for obtaining the catalytic constants of dTTP and dATP incorporation, respectively. In order to distinguish between dTTP and AZTTP, elongation reactions were carried out under conditions that allowed the incorporation of two nucleotides (i.e. T at position +1 and A at position +2). For this purpose dATP was supplied at 1 μM in all assays. The competition between tenofovir-DP and dATP was analyzed with template-primer D38T/25PGA. Assays were carried out with variable concentrations of dATP (as indicated above) and 2 μM dTTP to facilitate further extension of the primer when the inhibitor was not incorporated at position +1 of the DNA primer. Data were analyzed by using Lineweaver-Burk plots. Nucleotide incorporation reactions under pre-steady-state conditions were carried out with template-primer D38/25PGA, as described.

[2] = biological target: T2, HIV-1 RT M41L/L210W/T215Y/R284K (Human immunodeficiency virus type 1 group M subtype B, UniProt P03366, L809W/M640L/R883K/T814Y); experiment: as above; type: biochemical
T2 construct: His6 (C); made in house; host or cells: E. coli XL1 Blue
Method: as §1, §2

[3] = biological target: T3, HIV-1 RT M41L/L210W/T215Y (Human immunodeficiency virus type 1 group M subtype B, UniProt P03366, L809W/M640L/T814Y); experiment: as above; type: biochemical
T3 construct: His6 (C); made in house; host or cells: E. coli XL1 Blue
Method: as §1, §2

[4] = biological target: T2, HIV-1 RT M41L/L210W/T215Y/R284K; type: biochemical; conditions: M41L/L210W/T215Y/R284K RT 210 nM, 3.2 mM ATP, terminated 26-mer primer on 38-nt DNA template 30 nM
Method: (§3) The primer 25PGA was blocked at its 3´ end with d4TTP using terminal deoxynucleotidyltransferase (Roche), and excess nucleotides were eliminated by repeated passage through a mini Quick Spin column (Roche). The blocked primer was then labeled with [γ-^32P]ATP and T4 polynucleotide kinase and annealed to the DNA template D38, in order to obtain the template-primer D38/25PGA^d4T, used in the excision reactions. […] For this purpose, we preincubated the template-primer D38/^32P]25PGA (4.6 μM) with HIV-1BH10 RT (4 μM) in 65 μl of 50 mM Hepes pH 7.0 buffer, containing 15 mM NaCl, 15 mM magnesium acetate, 130 mM potassium acetate, 1 mM dithiothreitol, and 5% polyethylene glycol for 10 minutes at 37°C. Then, 35 μl of 6 mM AZTTP (diluted in the preincubation buffer) were added and incubated for another 30 minutes at 37°C to ensure that the primer was blocked completely. The RT was inactivated by heating the mixture for 10 minutes at 90°C. After slowly cooling the sample at room temperature, it was passaged several times through a mini Quick Spin column (Roche) to eliminate the free AZTTP. […] The excision of d4T monophosphate (d4TMP) from D38/25PGA^d4T was determined under single turnover conditions, as previously described.

[5] = biological target: T3, HIV-1 RT M41L/L210W/T215Y; type: biochemical; conditions: M41L/L210W/T215Y RT 210 nM, 3.2 mM ATP, terminated 26-mer primer on 38-nt DNA template 30 nM
Method: as §3

WT HIV-1 RT = biological target: T4, WT HIV-1 RT (Human immunodeficiency virus type 1 group M subtype B, UniProt P03366); type: biochemical
T4 construct: His6 (C); made in house; host or cells: E. coli XL1 Blue
Method: as §3

HIV-1 RT R284K = biological target: T5, HIV-1 RT R284K (Human immunodeficiency virus type 1 group M subtype B, UniProt P03366, R883K); experiment: Kinetics of ATP-dependent excision from DNA/DNA template-primers (single turnover); type: biochemical; conditions: R284K RT 210 nM, 3.2 mM ATP, terminated 26-mer primer on 38-nt DNA template 30 nM
T5 construct: His6 (C); made in house; host or cells: E. coli XL1 Blue
Method: as §3

[6] = test system: wild-type HXB2 virus carrying the RT sequence of BH10; experiment: Phenotypic drug susceptibility of recombinant HIV-1 in MT-4 cells (tetrazolium-based colorimetric method); type: cell-based; conditions: average ± SD of at least three tests
Method: (§4) Site-directed mutagenesis was carried out with the Quik-Change Site-Directed Mutagenesis kit (Stratagene) by following the manufacturer’s instructions, and using plasmids p66RTB [64] or p66RTB(LY) as templates. The plasmid p66RTB contains the nucleotide sequence encoding for the 66-kDa subunit of HIV-1BH10 RT, and p66RTB(LY) encodes a p66 derivative with thymidine analogue resistance mutations M41L and T215Y. […] All introduced mutations were confirmed by DNA sequencing. Recombinant HIV-1 was obtained as previously described. […] MT-4 cells were used to propagate the recombinant virus. The nucleotide sequence of the RT-coding region was fully determined in order to check for reversions or undesired mutations. MT-4 cells and the deleted HXB2-D clone were obtained from the AIDS Reagent Program (Medical Research Council).
(§5) Viable cells at different drug concentrations were quantified with a tetrazolium-based colorimetric method. Replication kinetics of wild-type and mutant viruses were assayed by infecting peripheral blood mononuclear cells (PBMCs) (mixed from two healthy donors), previously stimulated with phytohemagglutinin and interleukin 2 [26]. In these assays, viral replication rates were obtained from the amounts of HIV-1 p24^Gag antigen produced during the exponential phase of viral growth, as described previously. Growth competition assays in MT-4 cells were carried out as previously described, in the absence and in the presence of tenofovir disoproxil fumarate at concentrations ranging from 5 to 80 nM. A multiplicity of infection of 0.001 was used and competing viruses were mixed at a 50:50 ratio. RT inhibitors were obtained from the NIH AIDS Research and Reference Reagent Program.

[7] = test system: HIV-1 construct with RT M41L/L210W/T215Y; experiment: as above; type: cell-based
Method: as §4, §5

[8] = test system: HIV-1 construct with RT M41L/L210W/T215Y/R284K; experiment: as above; type: cell-based
Method: as §4, §5

[9] = test system: HIV-1 construct with RT R284K; experiment: as above; type: cell-based
Method: as §4, §5

WT HIV-1 RT (BH10) [10] = biological target: T1, WT HIV-1 RT (BH10); experiment: Steady-state kinetics of nucleotide incorporation; type: biochemical; conditions: D38/25PGA for dTTP, D38T/25PGA for dATP
Method: as §1, §2

[11] = biological target: T2, HIV-1 RT M41L/L210W/T215Y/R284K; experiment: Steady-state kinetics of nucleotide incorporation; type: biochemical; conditions: D38/25PGA for dTTP, D38T/25PGA for dATP
Method: as §1, §2

[12] = biological target: T3, HIV-1 RT M41L/L210W/T215Y; experiment: Steady-state kinetics of nucleotide incorporation; type: biochemical; conditions: D38/25PGA for dTTP, D38T/25PGA for dATP
Method: as §1, §2

[13] = biological target: T2, HIV-1 RT M41L/L210W/T215Y/R284K; experiment: Single-nucleotide incorporation under pre-steady-state conditions; type: biochemical; conditions: D38/25PGA, 80 μM dTTP
Method: as §2, with “Nucleotide incorporation reactions under pre-steady-state conditions were carried out with template-primer D38/25PGA, as described.” left out

[14] = biological target: T3, HIV-1 RT M41L/L210W/T215Y; experiment: as above; type: biochemical; conditions: D38/25PGA, 80 μM dTTP
Method: as §2, with “Nucleotide incorporation reactions under pre-steady-state conditions were carried out with template-primer D38/25PGA, as described.” left out

[15] = Human immunodeficiency virus 1, HXB2, MT4, WT virus
[16] = Human immunodeficiency virus 1, MT4, average ± SD of at least three tests

SMILES: CC(Cn1cnc2c(N)ncnc21)OCP(=O)(O)OP(=O)(O)OP(=O)(O)O (stereo in doubt) [Tenofovir-DP, tenofovir diphosphate]
- Ki (WT HIV-1 RT (BH10) [1]; competition with dATP, template-primer D38T/25PGA, read-out: Ki(Tenofovir-DP)): 3590 ± 260 nM
- Ki ([2]; M41L/L210W/T215Y/R284K RT, competition with dATP, template-primer D38T/25PGA, read-out: Ki(Tenofovir-DP)): 2540 ± 550 nM
- Ki ([3]; M41L/L210W/T215Y RT, competition with dATP, template-primer D38T/25PGA, read-out: Ki(Tenofovir-DP)): 2630 ± 640 nM

SMILES: Cc1cn([C@H]2C[C@H](N=[N+]=[N-])[C@@H](COP(=O)(O)O)O2)c(=O)[nH]c1=O [AZTMP]
- kobs of ATP-dependent excision reaction [4]: 0.0364 ± 0.00308 min⁻¹
- kobs of ATP-dependent excision reaction [5]: 0.0469 ± 0.00169 min⁻¹
- kobs of ATP-dependent excision reaction (WT HIV-1 RT; WT RT 210 nM, 3.2 mM ATP, terminated 26-mer primer on 38-nt DNA template 30 nM): 0.00282 ± 0.000148 min⁻¹
- kobs of ATP-dependent excision reaction (HIV-1 RT R284K): 0.00242 ± 0.000122 min⁻¹

SMILES: Cc1cn([C@H]2C[C@H](N=[N+]=[N-])[C@@H](CO[P@](=O)(O)O[P@](=O)(O)OP(=O)(O)O)O2)c(=O)[nH]c1=O [AZTTP]
- Ki (WT HIV-1 RT (BH10) [1]; competition with dTTP, template-primer D38/25PGA, read-out: Ki(AZTTP)): 2100 ± 380 nM
- Ki [2]: 2320 ± 740 nM
- Ki [3]: 2180 ± 170 nM

SMILES: Nc1nc(=O)n([C@@H]2CS[C@H](CO)O2)cc1F [Emtricitabine]
- IC50 [6, 15]: 144 ± 69.9 nM
- fold increase in IC50 relative to the wild-type HXB2 virus control [7]: 1.6
- IC50 [7, 16]: 227 ± 113 nM
- fold increase in IC50 relative to the wild-type HXB2 virus control [8]: 2.0
- IC50 [8, 16]: 295 ± 93.7 nM
- fold increase in IC50 relative to the wild-type HXB2 virus control [9]: 0.7
- IC50 [9, 16]: 104 ± 81.5 nM

SMILES: CC(C)OC(=O)OCOP(=O)(CO[C@H](C)Cn1cnc2c(N)ncnc21)OCOC(=O)OC(C)C.O=C(O)/C=C/C(=O)O [Tenofovir, tenofovir disoproxil fumarate]
- IC50 ([6]; WT virus): 6.7 ± 2.2 nM
- fold increase in IC50 relative to the wild-type HXB2 virus control [7]: 1.6
- IC50 ([7]; M41L/L210W/T215Y virus, average ± SD of at least three tests): 11 ± 4.6 nM
- fold increase in IC50 relative to the wild-type HXB2 virus control [8]: 2.7
- IC50 ([8]; M41L/L210W/T215Y/R284K virus, average ± SD of at least three tests): 18.1 ± 4.4 nM
- fold increase in IC50 relative to the wild-type HXB2 virus control [9]: 1.8
- IC50 ([9]; R284K virus, average ± SD of at least three tests): 12.1 ± 5.3 nM

SMILES: Cc1cn([C@H]2C=C[C@@H](CO)O2)c(=O)[nH]c1=O [d4T, 2´,3´-didehydro-2´,3´-dideoxythymidine]
- IC50 [6, 15]: 276 ± 90.5 nM
- fold increase in IC50 relative to the wild-type HXB2 virus control [7]: 0.8
- IC50 [7, 16]: 217 ± 75.5 nM
- fold increase in IC50 relative to the wild-type HXB2 virus control [8]: 1.0
- IC50 [8, 16]: 287 ± 84.5 nM
- fold increase in IC50 relative to the wild-type HXB2 virus control [9]: 0.5
- IC50 [9, 16]: 130 ± 24.8 nM

SMILES: Cc1cn([C@H]2C=C[C@@H](COP(=O)(O)O)O2)c(=O)[nH]c1=O [d4TMP, d4T monophosphate]
- kobs of ATP-dependent excision reaction [4]: 0.037 ± 0.00229 min⁻¹
- kobs of ATP-dependent excision reaction [5]: 0.0372 ± 0.00158 min⁻¹
- kobs of ATP-dependent excision reaction (WT HIV-1 RT): 0.00337 ± 0.000193 min⁻¹
- kobs of ATP-dependent excision reaction (HIV-1 RT R284K): 0.00262 ± 0.000142 min⁻¹

SMILES: Nc1ncnc2c1ncn2[C@H]1C[C@H](O)[C@@H](COP(=O)(O)OP(=O)(O)OP(=O)(O)O)O1 [dATP]
- Km (WT HIV-1 RT (BH10) [10]): 0.0258 ± 0.0067 µM
- kcat (WT HIV-1 RT (BH10) [10]): 0.0645 ± 0.0165 s⁻¹
- Km [11]: 0.0159 ± 0.0025 µM
- kcat [11]: 0.1682 ± 0.0245 s⁻¹
- Km [12]: 0.0321 ± 0.0096 µM
- kcat [12]: 0.095 ± 0.0145 s⁻¹

SMILES: Cc1cn([C@H]2C[C@H](O)[C@@H](COP(=O)(O)OP(=O)(O)OP(=O)(O)O)O2)c(=O)[nH]c1=O [dTTP]
- nucleotide incorporation rate (kobs) [13]: 38.8 ± 9.4 s⁻¹
- nucleotide incorporation rate (kobs) [14]: 21.5 ± 4.4 s⁻¹
- Km (WT HIV-1 RT (BH10) [10]): 0.108 ± 0.0129 µM
- kcat (WT HIV-1 RT (BH10) [10]): 0.0523 ± 0.00917 s⁻¹
- Km [11]: 0.184 ± 0.0061 µM
- kcat [11]: 0.0943 ± 0.00383 s⁻¹
- Km [12]: 0.117 ± 0.0219 µM
- kcat [12]: 0.0588 ± 0.0015 s⁻¹
